The values that follow come from patent US10010077B2, “Ginkgo derived compositions and their use to prevent fruit infestation by codling moth” (Missouri State University, priority 2012, dated 2018).

Marks after values point to notes of the source that are not given here. Bounds are passed on as bounds.

The test system of one series is mammals. To be noted: cited from earlier work.
The subject of another series is codling moth neonates. The experiment in a line: apple plug choice feeding bioassay with codling moth neonates. Format: in vivo, Cydia pomonella. Also on record: key to Deterrence index: (1 − treated feeders / control feeders) × 100. To be noted: for concentration at which feeding deterrent effects were found / feeding deterrent properties against codling moth neonates: Fisher exact test; for feeding deterrent properties against codling moth neonates: all concentrations tested. As to the method:
Codling moth pupae were obtained from USDA-ARS Yakima Agricultural Research Laboratory in Wapato, Wash., USA. These pupae were stored at 25° C., 70-80% relative humidity and 16:8 (L:D). Moths were allowed to oviposit on polypropylene Ziploc bags (S. C. Johnson, Racine, Wis., USA). Neonates were collected 0.5-1.0 h post-hatch and subjected to bioassays immediately.
Bioassays were performed as described in details by Durden et al. (2008). Briefly, apple plugs were formed by forcing a plastic soda straw through a 20 mm thick section of apple containing both epidermis and flesh of the apple. The straw with a plug in it was cut to a length of approximately 15 mm, the plug positioned with the epidermis of the apple protruding 2 mm from the straw and entire assembly was dipped in liquid paraffin wax. Excess wax was removed from the epidermis of the plug using a warm spatula.
Five microliters of either control (dehydration alcohol only) or experimental solution was applied to the epidermis of each apple plug and allowed to dry. Using a small amount of modeling clay, four plugs (two controls, two experimental) were arranged with one control and one experimental plug facing each other at either side of a 60×15 mm polyurethane petri dish. A short piece of glass rod (1.3 mm diameter) was placed between the two pairs of plugs to form a bridge allowing tested codling moth neonate to choose between either control or experimental plug regardless of which direction the larva traveled along the glass rod.
Assays were evaluated after 20 hours to determine which plug was fed upon. Feeding deterrence index was calculated according to Jones (1952) by dividing the number of the neonates feeding on apple plugs treated with […] by the number of the neonates feeding on the plugs treated with dehydration alcohol only, subtracting this figure from 1, and multiplying the result by 100. Further details about this method may be found in Durden et al. (2008) and Durden et al., (2011).
[…] The number of tests per concentration (each test performed with a different neonate) varied between 13 and 93. The null hypothesis that 50% of neonates would choose control plugs and 50% would choose experimental plugs was tested using Fisher's Exact Test (α=0.05).

For series [1] the following is noted: concentration of 0.2%; cited from earlier work.
[2] abbreviates: choice test versus fruit treated at 0.01 mg/ml.
Where [3] appears, read: choice test versus fruit treated at 0.1 mg/ml.
[4] abbreviates: choice test versus fruit treated at 1 mg/ml.
Setting [5] is: choice test versus fruit treated at 10 mg/ml.
Setting [6] is: circa 3 mg/ml, saturated solution.
[7] abbreviates: choice test versus fruit treated at 30 mg/ml.

Regarding `CC(C)(C)[C@]1(O)CC2OC(=O)CC23C(=O)OC2OC(=O)[C@H](O)C231` (stereo partly shown) [Bilobalide], in the series with mammals, the LD50 is reported as > 1,000 mg/kg. Besides, the Deterrence index in the series with codling moth neonates (0.001 mg/ml) was found to be 0; in the series on codling moth neonates (0.01 mg/ml), 23.5; in the series with codling moth neonates (0.1 mg/ml), 56.5; in the series on codling moth neonates (1 mg/ml), 50; with codling moth neonates (10 mg/ml) it was 75. The “Number of neonates feeding Treated fruit” value is on record as 15 in the series with codling moth neonates (0.001 mg/ml); 13 in the series with codling moth neonates (0.01 mg/ml); 20* in the series on codling moth neonates (0.1 mg/ml); 31* in the series with codling moth neonates (1 mg/ml); 8** in the series on codling moth neonates (10 mg/ml). In addition, the “concentration at which feeding deterrent effects were found” value in the series on codling moth neonates was ≥ 0.1 mg/mL. Moreover, the “Number of neonates feeding Control fruit” value with codling moth neonates (choice test versus fruit treated at 0.001 mg/ml) turned out to be 15; in the series on codling moth neonates (setting [2]), 17; in the series with codling moth neonates (setting [3]), 46; in the series with codling moth neonates (setting [4]), 62; with codling moth neonates (setting [5]) it was 32. In addition, in series [1], the phytotoxicity result is on record as “not phytotoxic”.

As for `C[C@@H]1C(=O)O[C@H]2C[C@@]34[C@H]5C[C@@H](C(C)(C)C)[C@]36[C@@H](OC(=O)[C@@H]6O)O[C@@]4(C(=O)O5)[C@]21O` [Ginkgolide A], the figures for the Deterrence index with codling moth neonates (0.1 mg/ml), with codling moth neonates (1 mg/ml) and in the series with codling moth neonates (10 mg/ml) were 7.69, 40.4 and 38.5, respectively. Moreover, the “Number of neonates feeding Treated fruit” value is listed as 12 with codling moth neonates (0.1 mg/ml), 28 with codling moth neonates (1 mg/ml) and 16 in the series on codling moth neonates (10 mg/ml). Besides, the “feeding deterrent properties against codling moth neonates” value (from here on “feeding deterrent properties”) in the series with codling moth neonates is listed as “did not exhibit significant feeding deterrent properties”. Moreover, the “Number of neonates feeding Control fruit” value with codling moth neonates (setting [3]) was 13; in the series on codling moth neonates (setting [4]), 47; with codling moth neonates (setting [5]), 26.

On to `CC1C(=O)OC2C(O)C34C5CC(C(C)(C)C)C36C(OC(=O)C6O)OC4(C(=O)O5)C12O` (stereo not shown) [Ginkgolide B], for which the Deterrence index in the series on codling moth neonates (0.1 mg/ml) came to 12.5; in the series with codling moth neonates (1 mg/ml), 26.1; in the series on codling moth neonates (10 mg/ml), 76.0. Moreover, the entries for the “Number of neonates feeding Treated fruit” value in the series with codling moth neonates (0.1 mg/ml), with codling moth neonates (1 mg/ml) and with codling moth neonates (10 mg/ml) were 14, 17 and 6***, respectively. Besides, the “concentration at which feeding deterrent effects were found” value with codling moth neonates worked out at 10 mg/mL. In addition, the “Number of neonates feeding Control fruit” value was 16 in the series with codling moth neonates (setting [3]), 23 in the series on codling moth neonates (setting [4]) and 25 with codling moth neonates (setting [5]).

In the case of `COc1cc(-c2oc3cc(O)cc(O)c3c(=O)c2O)ccc1O` [Isorhamnetin], the Deterrence index in the series on codling moth neonates (0.01 mg/ml) is reported as 21.7; in the series on codling moth neonates (0.1 mg/ml), 10.3; in the series on codling moth neonates (1 mg/ml), “No deterrence”; in the series on codling moth neonates (setting [6]), 32.1. Besides, the “Number of neonates feeding Treated fruit” value in the series on codling moth neonates (0.01 mg/ml) was determined as 18; in the series with codling moth neonates (0.1 mg/ml) it was 26; in the series on codling moth neonates (1 mg/ml), 43; in the series with codling moth neonates (setting [6]) it was 19. The “feeding deterrent properties” value in the series with codling moth neonates was “slight tendency to discourage some percentage of the larvae from infesting the fruit”. Besides, the “Number of neonates feeding Control fruit” value with codling moth neonates (setting [2]) worked out at 23; in the series with codling moth neonates (setting [3]) it was 29; in the series with codling moth neonates (setting [4]), 28; in the series on codling moth neonates (choice test versus fruit treated at circa 3 mg/ml, saturated solution) it was 28.

As to `O=c1c(O)c(-c2ccc(O)cc2)oc2cc(O)cc(O)c12` [Kaempferol], the Deterrence index entry with codling moth neonates (0.1 mg/ml) is “No deterrence”; in the series with codling moth neonates (1 mg/ml) it was 25; with codling moth neonates (10 mg/ml), “No deterrence”; with codling moth neonates (30 mg/ml), “No deterrence**”; with codling moth neonates (60 mg/ml), “No deterrence*”. Also, the “Number of neonates feeding Treated fruit” value in the series with codling moth neonates (0.1 mg/ml) is given as 12; in the series with codling moth neonates (1 mg/ml) it was 24; in the series on codling moth neonates (10 mg/ml) it was 10; with codling moth neonates (30 mg/ml), 35; in the series with codling moth neonates (60 mg/ml), 17. Also, the “Number of neonates feeding Control fruit” value worked out at 8 in the series with codling moth neonates (setting [3]); 32 with codling moth neonates (setting [4]); 10 in the series on codling moth neonates (setting [5]); 9 with codling moth neonates (setting [7]); 3 with codling moth neonates (choice test versus fruit treated at 60 mg/ml).

For `O=c1c(O)c(-c2ccc(O)c(O)c2)oc2cc(O)cc(O)c12` [Quercetin], the Deterrence index result was “No deterrence” in the series on codling moth neonates (0.1 mg/ml), “No deterrence” with codling moth neonates (1 mg/ml), “No deterrence” with codling moth neonates (10 mg/ml) and “No deterrence**” with codling moth neonates (30 mg/ml). The “Number of neonates feeding Treated fruit” value in the series with codling moth neonates (0.1 mg/ml) is 14; in the series with codling moth neonates (1 mg/ml), 24; with codling moth neonates (10 mg/ml), 20; in the series with codling moth neonates (30 mg/ml), 21. The “Number of neonates feeding Control fruit” value in the series on codling moth neonates (setting [3]) is given as 10; in the series with codling moth neonates (setting [4]) it was 24; in the series with codling moth neonates (setting [5]) it was 16; with codling moth neonates (setting [7]), 4.

Regarding Ginkgolide C, the Deterrence index in the series with codling moth neonates (0.1 mg/ml) was 11.8; with codling moth neonates (1 mg/ml) it was 20; in the series on codling moth neonates (10 mg/ml), 10. Moreover, the results for the “Number of neonates feeding Treated fruit” value with codling moth neonates (0.1 mg/ml), in the series on codling moth neonates (1 mg/ml) and with codling moth neonates (10 mg/ml) were 15, 24 and 18, respectively. In addition, in the series on codling moth neonates, the “feeding deterrent properties” value is listed as “did not exhibit significant feeding deterrent properties”. For the same compound, the “Number of neonates feeding Control fruit” value is 17 in the series on codling moth neonates (setting [3]), 30 in the series with codling moth neonates (setting [4]) and 20 in the series with codling moth neonates (setting [5]).
